Test results published in ChEMBL document CHEMBL1201862, “PubChem BioAssay data set” (2004).
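The compound was tested at five concentrations on cells cultured in 96-well plates, with a 48-hour exposure period. GI50 = concentration required for 50% inhibition of growth.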 The source made the active and inactive calls. Rule as the data show it: active = GI50 up to about 1.1 µM and inactive = higher.

Tests used:
Assay in all cases: NCI-60 cell line screen, 48 h
IGROV-1 = tested on: IGROV-1
HOP-92 = tested on: HOP-92
OVCAR-3 = tested on: OVCAR-3
TK-10 = tested on: TK-10
EKVX = tested on: EKVX
CCRF-CEM = tested on: CCRF-CEM
COLO 205 = tested on: COLO 205
HCT-116 = tested on: HCT-116
HL-60 = tested on: HL-60
ACHN = tested on: ACHN
UACC-257 = tested on: UACC-257
A549 = tested on: A549
OVCAR-8 = tested on: OVCAR-8
NCI-H23 = tested on: NCI-H23
SK-MEL-2 = tested on: SK-MEL-2
NCI-H522 = tested on: NCI-H522
SF-539 = tested on: SF-539
SF-268 = tested on: SF-268
SN12C = tested on: SN12C
HCT-15 = tested on: HCT-15

Structure (SMILES) | GI50 (IGROV-1) | GI50 (HOP-92) | GI50 (OVCAR-3) | GI50 (TK-10) | GI50 (EKVX) | GI50 (CCRF-CEM) | GI50 (COLO 205) | GI50 (HCT-116) | GI50 (HL-60) | GI50 (ACHN) | GI50 (UACC-257) | GI50 (A549) | GI50 (OVCAR-8) | GI50 (NCI-H23) | GI50 (SK-MEL-2) | GI50 (NCI-H522) | GI50 (SF-539) | GI50 (SF-268) | GI50 (SN12C) | GI50 (HCT-15) [µM]
O=C(NC1CCCCC1)NC12CC3CC(CC(F)(C3)C1)C2 | > 100 µM (inactive) | 54.5 µM (inactive) | > 100 µM (inactive) | 85.3 µM (inactive) | 57.7 µM (inactive) | > 100 µM (inactive) | > 100 µM (inactive) | > 100 µM (inactive) | > 100 µM (inactive) | > 100 µM (inactive) | > 100 µM (inactive) | > 100 µM (inactive) | > 100 µM (inactive) | > 100 µM (inactive) | > 100 µM (inactive) | > 100 µM (inactive) | > 100 µM (inactive) | – | – | –
CN(c1ccc(C(=O)c2ccc(N(C)S(C)(=O)=O)cc2)cc1)S(C)(=O)=O | – | > 100 µM (inactive) | – | > 100 µM (inactive) | 86.5 µM (inactive) | > 100 µM (inactive) | > 100 µM (inactive) | > 100 µM (inactive) | 76.4 µM (inactive) | 77.8 µM (inactive) | 48.9 µM (inactive) | > 100 µM (inactive) | > 100 µM (inactive) | 34.5 µM (inactive) | > 100 µM (inactive) | 94.2 µM (inactive) | – | > 100 µM (inactive) | > 100 µM (inactive) | –
c1ccc(C2N3CCCCC3[C@@H]3c4[nH]c5ccccc5c4CCN23)cc1 (some centres not stated) | > 100 µM (inactive) | > 100 µM (inactive) | > 100 µM (inactive) | > 100 µM (inactive) | > 100 µM (inactive) | 28.6 µM (inactive) | 23.3 µM (inactive) | 64 µM (inactive) | 22.1 µM (inactive) | > 100 µM (inactive) | > 100 µM (inactive) | > 100 µM (inactive) | > 100 µM (inactive) | > 100 µM (inactive) | > 100 µM (inactive) | – | > 100 µM (inactive) | > 100 µM (inactive) | > 100 µM (inactive) | > 100
CCCCCCCCCCC(C)CCCCCCC(=O)OCC(COP(=O)([O-])OCC[N+](C)(C)C)OC(=O)CCCCCCC(C)CCCCCCCCCC (configuration not stated) | > 100 µM (inactive) | > 100 µM (inactive) | > 100 µM (inactive) | > 100 µM (inactive) | > 100 µM (inactive) | > 100 µM (inactive) | > 100 µM (inactive) | > 100 µM (inactive) | > 100 µM (inactive) | > 100 µM (inactive) | > 100 µM (inactive) | > 100 µM (inactive) | > 100 µM (inactive) | > 100 µM (inactive) | > 100 µM (inactive) | > 100 µM (inactive) | – | > 100 µM (inactive) | > 100 µM (inactive) | > 100
Cc1c2c(cc3c1[nH]c1ccccc13)C(c1ccc(Cl)cc1)=NCC2 | 0.944 µM (active) | 0.716 µM (active) | 0.29 µM (active) | – | 0.274 µM (active) | 0.433 µM (active) | 0.41 µM (active) | 0.542 µM (active) | 0.288 µM (active) | – | 0.621 µM (active) | 0.665 µM (active) | 0.804 µM (active) | 0.368 µM (active) | 0.711 µM (active) | 0.288 µM (active) | 0.667 µM (active) | 0.598 µM (active) | 0.244 µM (active) | 0.416
Cc1c2cc[n+](C)cc2c(C)c2c1[nH]c1ccccc12 | 3.79 µM (inactive) | 1.56 µM (inactive) | 3.06 µM (inactive) | 27.2 µM (inactive) | 0.834 µM (active) | 2.25 µM (inactive) | 0.538 µM (active) | 3.76 µM (inactive) | 8.69 µM (inactive) | 12.8 µM (inactive) | 6.41 µM (inactive) | 0.249 µM (active) | 0.368 µM (active) | 0.773 µM (active) | 1.28 µM (inactive) | 0.774 µM (active) | 0.505 µM (active) | 0.467 µM (active) | 0.172 µM (active) | –
COc1c(CC(C)O)c2c3c(CC(C)O)c(OC)c(=O)c4c(O)cc5c(c6c(cc(O)c(c1=O)c62)OCO5)c43 (configuration not stated) [CERCOSPORIN] | 1.69 µM (inactive) | 2.3 µM (inactive) | 1.87 µM (inactive) | 2.62 µM (inactive) | – | 2.72 µM (inactive) | 0.158 µM (active) | 1.39 µM (inactive) | 0.968 µM (active) | 1.63 µM (inactive) | 1.34 µM (inactive) | 1.65 µM (inactive) | 1.74 µM (inactive) | 1.4 µM (inactive) | 1.55 µM (inactive) | 1.82 µM (inactive) | 2.13 µM (inactive) | 1.81 µM (inactive) | 1.57 µM (inactive) | 1.56
